The record followed here is ChEMBL document CHEMBL1806453, “Conjugate of neamine and 2-deoxystreptamine mimic connected by an amide bond” (Bioorg Med Chem Lett, 2011).

The Kd is the constant that tells how readily two partners part at equilibrium. A high value points to weaker binding.

Holding throughout (type): nucleic-acid assay
In experiment [1] the target is Nucleic Acid. Kind of experiment: Binding affinity to 2-AP labeled mutant RNA5 by fluorescence binding assay.
Experiment [2] addresses Nucleic Acid. The experiment is described as follows: Binding affinity to 2-AP labeled mutant RNA3 by fluorescence binding assay.
Experiment [3] addresses Nucleic Acid. The experiment is described as follows: Binding affinity to 2-AP labeled RNA1 by fluorescence binding assay.
In experiment [4] the target is Nucleic Acid. The experiment is described as follows: Binding affinity to 2-AP labeled mutant RNA7 by fluorescence binding assay.
The target of experiment [5] is Nucleic Acid. The experiment is described as follows: Binding affinity to 2-AP labeled mutant RNA4 by fluorescence binding assay.
The target in experiment [6] is Nucleic Acid. Kind of experiment: Binding affinity to 2-AP labeled mutant RNA2 by fluorescence binding assay.
The target in experiment [7] is Nucleic Acid. The experiment is described as follows: Binding affinity to 2-AP labeled mutant RNA6 by fluorescence binding assay.
The target in experiment [8] is Nucleic Acid. Kind of experiment: Binding affinity to 2-AP labeled mutant RNA8 by fluorescence binding assay.

`NC[C@@H]1O[C@H](O[C@H]2[C@@H](O)[C@H](O[C@@H]3[C@@H](O)[C@H](N)C[C@H](N)[C@H]3O[C@H]3O[C@H](CN)[C@@H](O)[C@H](O)[C@H]3N)O[C@@H]2CO)[C@H](N)[C@@H](O)[C@@H]1O` [FRAMYCETIN]: the Kd at Nucleic Acid [1] turned out to be 1100 nM; on Nucleic Acid [2], 1100 nM; on Nucleic Acid [3], 1500 nM; on Nucleic Acid [4] it was 1100 nM.

For `CO[C@@H]1C[C@H](NC(=O)[C@@H]2C[C@H](O[C@H]3O[C@H](CN)[C@@H](O)[C@H](O)[C@H]3N)[C@@H](N)C[C@H]2N)[C@@H](N)C[C@H]1N`, the Kd amounted to 500 nM at Nucleic Acid [1]; 1700 nM on Nucleic Acid [5]; 2200 nM at Nucleic Acid [2]; 1500 nM on Nucleic Acid [6]; 2200 nM at Nucleic Acid [3]; 1400 nM on Nucleic Acid [7]. Moreover, the figures for the Kd at Nucleic Acid [4] and at Nucleic Acid [8] were 2900 nM and 1400 nM, respectively.
